Test: log P determination by reversed-phase HPLC (EEC Directive 79/831 Annex V.A8; acidic or neutral mobile phase)
Assay type: physicochemical
Conditions: HPLC reversed-phase C18, 43° C., acidic range: 0.1% aqueous phosphoric acid, acetonitrile (marked a))
Description: The log P values given in the table were determined in accordance with EEC Directive 79/831 Annex V.A8 by HPLC (High Performance Liquid Chromatography) using a reversed-phase column (C 18). Temperature: 43° C.
(a) Mobile phases for the determination in the acidic range: 0.1% aqueous phosphoric acid, acetonitrile; linear gradient from 10% acetonitrile to 90% acetonitrile—the corresponding measurement results are marked a) in Table 1.
(b) Mobile phases for the determination in the neutral range: 0.01 molar aqueous phosphate buffer solution, acetonitrile; linear gradient from 10% acetonitrile to 90% acetonitrile—the corresponding measurement results are marked b) in Table 1.

| Structure (SMILES) | logP |
| --- | --- |
| CS(=O)(=O)c1ccc(C(=O)C2C(=O)CCCC2=O)c(Cl)c1CNOCc1ccccc1 [Example 199] | (I-2) logP = 3.04^a) |

Same assay, conditions: HPLC reversed-phase C18, 43° C.; acidic range: 0.1% aqueous phosphoric acid, acetonitrile gradient (marked a))

| Structure (SMILES) | logP |
| --- | --- |
| CCn1ncc(C(=O)c2ccc(Cl)c(OCCNS(=O)(=O)CCl)c2Cl)c1O [Example 8] | logP = 2.05^a) |
| CCN(Cc1c(Cl)ccc(C(=O)C2C(=O)CCCC2=O)c1Cl)OC [Example 148] | logP = 3.63^a) |
| CC(C)S(=O)(=O)NCCOc1c(Cl)ccc(C(=O)C2C(=O)CCCC2=O)c1Cl [Example 25] | logP = 2.50^a) |
| O=C1CCCC(=O)C1C(=O)c1ccc(Cl)c(OCCNS(=O)(=O)c2cccs2)c1Cl [Example 35] | (I-2) logP = 2.92^a) |
| CCONCc1c(Cl)ccc(C(=O)C2C(=O)CCCC2=O)c1Cl [Example 133] | logP = 2.75^a) |

Same assay, conditions: HPLC, reversed-phase C18, 43° C.; acidic range a): 0.1% aqueous phosphoric acid, acetonitrile, linear gradient 10% to 90% acetonitrile

| Structure (SMILES) | logP |
| --- | --- |
| CCn1ncc(C(=O)c2ccc(Br)c(OCCNS(=O)(=O)CC)c2C)c1O [Example 362] | logP = 2.09^a) |
| COc1c(C(=O)C2C(=O)CCC(C)(C)C2=O)ccc(Cl)c1CN(C)S(C)(=O)=O (stereo not shown) [Example 473] | (I-2) logP = 2.92^a) |
| CCN(Cc1c(S(C)(=O)=O)ccc(C(=O)c2cnn(C)c2O)c1Cl)S(C)(=O)=O [Example 469] | logP = 1.22^a) |
| CCN(Cc1c(S(C)(=O)=O)ccc(C(=O)C2C(=O)CC(C)CC2=O)c1Cl)S(C)(=O)=O (stereo not shown) [Example 475] | (I-2) logP = 2.32^a) |
| CN(Cc1c(Cl)ccc(C(=O)c2cnn(C)c2O)c1Cl)S(C)(=O)=O [Example 457] | logP = 1.44^a) |
| CCn1ncc(C(=O)c2ccc(Br)c(OCCNS(C)(=O)=O)c2C)c1O [Example 365] | logP = 1.89^a) |
| CCN(Cc1c(S(C)(=O)=O)ccc(C(=O)C2C(=O)CCCC2=O)c1Cl)S(C)(=O)=O [Example 467] | logP = 2.02^a) |
| CCn1ncc(C(=O)c2ccc(Cl)c(OCCNS(C)(=O)=O)c2C)c1O [Example 360] | logP = 1.82^a) |
| CCON(CC)Cc1c(S(C)(=O)=O)ccc(C(=O)c2cnn(CC)c2O)c1Cl [Example 451] | logP = 2.44^a) |
| COc1c(C(=O)c2cnn(C)c2O)ccc(Cl)c1CN(C)S(C)(=O)=O [Example 471] | logP = 1.55^a) |
| CCON(Cc1c(S(C)(=O)=O)ccc(C(=O)c2cnn(C)c2O)c1Cl)CC1CCOC1 (stereo not shown) [Example 427] | (I-2) logP = 1.90^a) |
| CCn1ncc(C(=O)c2ccc(Cl)c(OCCNS(C)(=O)=O)c2Cl)c1O [Example 354] | logP = 1.54^a) |
| CCN(Cc1c(S(C)(=O)=O)ccc(C(=O)c2cnn(CC)c2O)c1Cl)S(C)(=O)=O [Example 468] | logP = 1.48^a) |
| CCN(CC)C(=O)CN(Cc1c(S(C)(=O)=O)ccc(C(=O)c2cnn(CC)c2O)c1Cl)OC [Example 389] | (I-2) logP = 1.85^a) |
| CCN(Cc1c(S(C)(=O)=O)ccc(C(=O)c2cnn(C)c2O)c1Cl)OC [Example 369] | logP = 1.84^a) |
| CCS(=O)(=O)NCCOc1c(Br)ccc(C(=O)c2cnn(C)c2O)c1C [Example 363] | logP = 1.77^a) |
| CCn1ncc(C(=O)c2ccc(S(C)(=O)=O)c(CN(C)OCC3CCCCO3)c2Cl)c1O (stereo not shown) [Example 439] | (I-2) logP = 2.35^a) |
| CCn1ncc(C(=O)c2ccc(S(C)(=O)=O)c(CN(OC)C(C)C3CC3)c2Cl)c1O (stereo not shown) [Example 373] | (I-2) logP = 2.94^a) |
| CCn1ncc(C(=O)c2ccc(S(C)(=O)=O)c(CNOC3CCCC3)c2Cl)c1O [Example 422] | (I-2) logP = 2.31^a) |
| CN(Cc1c(S(C)(=O)=O)ccc(C(=O)C2C(=O)CCCC2=O)c1Cl)S(C)(=O)=O [Example 454] | logP = 1.84^a) |

| Structure (SMILES) | logP |
| --- | --- |
| CN(Cc1c(S(C)(=O)=O)ccc(C(=O)C2C(=O)CCCC2=O)c1Cl)OCC1CCOC1 (stereo not shown) [Example 434] | (I-2) logP = 2.67^a) |
| CCON(C)Cc1c(S(C)(=O)=O)ccc(C(=O)C2C(=O)CCC(C)(C)C2=O)c1Cl (stereo not shown) [Example 425] | (I-2) logP = 3.65^a) |
| CN(Cc1c(S(C)(=O)=O)ccc(C(=O)C2C(=O)CCCC2=O)c1Cl)OCC1CC1 [Example 444] | (I-2) logP = 3.14^a) |
| CCn1ncc(C(=O)c2ccc(S(C)(=O)=O)c(CN(OC)C3CCOC3)c2Cl)c1O (stereo not shown) [Example 410] | (I-2) logP = 1.70^a) |
| CCN(Cc1c(Cl)ccc(C(=O)C2C(=O)CCC(C)(C)C2=O)c1OC)S(C)(=O)=O (stereo not shown) [Example 465] | (I-2) logP = 3.21^a) |
| CCONCc1c(Cl)ccc(C(=O)C2C(=O)CCCC2=O)c1OC [Example 447] | logP = 2.20^a) |
| CCn1ncc(C(=O)c2ccc(S(C)(=O)=O)c(CN(C)OCC3CC3)c2Cl)c1O [Example 443] | (I-2) logP = 2.41^a) |
| COc1c(C(=O)C2C(=O)CC(C)CC2=O)ccc(Cl)c1CN(C)S(C)(=O)=O (stereo not shown) [Example 476] | (I-2) logP = 2.56^a) |
| CC(C)ON(Cc1c(S(C)(=O)=O)ccc(C(=O)c2cnn(C)c2O)c1Cl)C(C)C [Example 400] | logP = 2.81^a) |
| Cc1c(C(=O)C2C(=O)CCCC2=O)ccc(Cl)c1OCCNS(C)(=O)=O [Example 361] | logP = 2.13^a) |
| COc1c(C(=O)C2C(=O)CCCC2=O)ccc(Cl)c1CN(C)OC [Example 477] | logP = 2.63^a) |
| CON(Cc1c(S(C)(=O)=O)ccc(C(=O)C2C(=O)CCCC2=O)c1Cl)C1CCOC1 (stereo not shown) [Example 409] | (I-2) logP = 2.32^a) |
| CCN(Cc1c(Cl)ccc(C(=O)c2cnn(C)c2O)c1Cl)OC [Example 480] | logP = 2.46^a) |
| CN(Cc1c(S(C)(=O)=O)ccc(C(=O)c2cnn(C)c2O)c1Cl)S(C)(=O)=O [Example 453] | logP = 0.99^a) |
| Cc1c(C(=O)C2C(=O)CCCC2=O)ccc(Br)c1OCCNS(C)(=O)=O [Example 367] | logP = 2.19^a) |
| CCON(Cc1c(S(C)(=O)=O)ccc(C(=O)C2C(=O)CCC(C)(C)C2=O)c1Cl)CC1CCOC1 (stereo not shown) [Example 446] | (I-2) logP = 3.60^a) |
| CCN(Cc1c(S(C)(=O)=O)ccc(C(=O)c2cnn(CC)c2O)c1Cl)OC(C)C [Example 404] | logP = 2.79^a) |
| CC(C)ON(Cc1c(S(C)(=O)=O)ccc(C(=O)C2C(=O)CCC(C)(C)C2=O)c1Cl)C(C)C (stereo not shown) [Example 399] | (I-2) logP = 4.80^a) |
| CCN(Cc1c(Cl)ccc(C(=O)C2C(=O)CCCC2=O)c1OC)S(C)(=O)=O [Example 464] | logP = 2.47^a) |

Same assay, conditions: HPLC, reversed-phase C 18, 43° C.; acidic range: 0.1% aqueous phosphoric acid, acetonitrile (marked a) or acidic)

| Structure (SMILES) | log P (acidic) |
| --- | --- |
| COC(=O)c1ccc(S(C)(=O)=O)c(CN(CC2CCOC2)OC2CCCC2)c1Cl (stereo not shown) [VIII-56] | logPacidic = 3.30 |
| COC(=O)c1ccc(S(C)(=O)=O)c(CN(Cc2cccnc2)OC)c1Cl [VIII-42] | logPacidic = 1.16 |
| COC(=O)c1ccc(Cl)c(CN(C)S(C)(=O)=O)c1Cl [VIII-68] | logPacidic = 2.15 |
| COC(=O)c1ccc(S(C)(=O)=O)c(CNOC2CCCC2)c1Cl [VIII-48] | logPacidic = 2.93 |
| CONCc1c(S(C)(=O)=O)ccc(C(=O)OC)c1Cl [VIII-21] | logPacidic = 1.69 |
| COC(=O)c1ccc(S(C)(=O)=O)c(CNOCCOc2ccccc2)c1Cl [VIII-62] | logPacidic = 2.93 |
| CCON(C)Cc1c(S(C)(=O)=O)ccc(C(=O)OC)c1Cl [VIII-43] | logPacidic = 2.64 |
| CCN(Cc1c(S(C)(=O)=O)ccc(C(=O)OC)c1Cl)OC [VIII-23] | logPacidic = 2.74 |
| COC(=O)c1ccc(S(C)(=O)=O)c(CN(Cc2ccccn2)OC)c1Cl [VIII-41] | logPacidic = 1.17 |
| COC(=O)c1ccc(S(C)(=O)=O)c(CN(OC)C2CCSCC2)c1Cl [VIII-40] | logPacidic = 3.20 |
| COC(=O)c1ccc(S(C)(=O)=O)c(OCCNS(C)(=O)=O)c1Cl [VIII-30] | logPacidic = 1.56 |
| COC(=O)c1ccc(S(C)(=O)=O)c(CN(CC2CCOC2)OC)c1Cl (stereo not shown) [VIII-54] | logPacidic = 2.35 |
| COC(=O)c1ccc(S(C)(=O)=O)c(CN(OC)C(C)C)c1Cl [VIII-25] | logPacidic = 3.13 |
| COC(=O)c1ccc(S(C)(=O)=O)c(CN(OC)C2CCOC2)c1Cl (stereo not shown) [VIII-58] | logPacidic = 2.17 |
| C=CCN(Cc1c(S(C)(=O)=O)ccc(C(=O)OC)c1Cl)S(C)(=O)=O [VIII-73] | logPacidic = 2.03 |

Same assay, conditions: HPLC, reversed-phase C 18, 43° C.; mobile phase range not marked

| Structure (SMILES) | logP (HPLC, mobile phase not marked) | log P |
| --- | --- | --- |
| CCn1nc(C)c(C(=O)c2ccc(S(C)(=O)=O)c(CN(C)OC)c2Cl)c1O [Example 307] | 1.45 | – |
| CCN(Cc1c(Cl)ccc(C(=O)OC)c1Cl)OC [VIII-9] | – | logP = 3.72 |
| CCOC(=O)c1ccc(Cl)c(OCCNS(=O)(=O)c2cccs2)c1Cl [VIII-18] | – | logP = 3.20 |
| CCN(Cc1c(S(C)(=O)=O)ccc(C(=O)c2cnn(CC)c2O)c1Cl)OC [Example 309] | 2.16 | – |
| CCn1ncc(C(=O)c2ccc(S(C)(=O)=O)c(CN(OC)C(C)C)c2Cl)c1O [Example 344] | 2.52 | – |
| CCOC(=O)c1ccc(Cl)c(OCCNS(=O)(=O)CCl)c1Cl [VIII-16] | – | logP = 2.80 |
| CCn1ncc(C(=O)c2ccc(S(C)(=O)=O)c(CNOCc3ccccc3)c2Cl)c1O [Example 349] | 2.31 | – |

Same assay, conditions: reversed-phase C18 HPLC column; HPLC, reversed-phase C 18, 43° C.; mobile phase range not marked; read-out: log P

| Structure (SMILES) | chromatographic logP |
| --- | --- |
| CCOC(=O)c1ccc(Cl)c(OCCNC(=O)OC(C)(C)C)c1Cl [ethyl 2,4-dichloro-3-[2-[(t-butoxycarbonyl)amino]ethoxy]benzoate] | 3.79 |
| CS(=O)(=O)NCCOc1c(Cl)ccc(C(=O)O)c1Cl [II-2, 2,4-dichloro-3-(2-methylsulphonylaminoethoxy)benzoic acid] | 1.36 |
| COC(=O)c1ccc(Cl)c(CN(C)OC)c1Cl [VIII-1, methyl 2,4-dichloro-3-(N-methoxy-N-methylaminomethyl)benzoate] | 3.08 |

Reference: patent US7807703B2, “Substituted aryl ketones” (Bayer CropScience AG, priority 2002, dated 2010)
